These results are taken from ChEMBL document CHEMBL3351364 (J Med Chem, 2014).

The nature of data set [1]: Oral bioavailability in beagle dog at 2.3 mg/kg. The format is ADME, organism-based, Canis lupus familiaris. Conditions: in vivo.
A short description of data set [2]: Cmax in monkey at 3 mg/kg, po. The format is ADME, organism-based, Macaca mulatta. More on the design: dose 3 mg/kg, route oral. The following applies: rhesus monkey, in vivo.
Data set [3] relates to Hepatitis C virus. In words: Antiviral activity against HCV genotype 1b infected in human Huh7 cells after 3 days by cell-based replicon assay. The following applies: Huh-7, 72 h. It counts as functional, Hepacivirus hominis.
Data set [4] can be described thus: Lipophilicity, log P of the compound. The format is physicochemical. Conditions: octanol/water.
Data set [5] can be described thus: Half life in Sprague-Dawley rat at 3 mg/kg, po. Conditions: in vivo. The format is ADME, organism-based. More on the design: dose 3 mg/kg, route oral.
Data set [6] is described as follows: Cmax in Sprague-Dawley rat at 3 mg/kg, po. It counts as ADME, organism-based. Details: dose 3 mg/kg, route oral. The following applies: in vivo.
Data set [7] is described as follows: Half life in monkey at 3 mg/kg, po. The format is ADME, organism-based, Macaca mulatta. Details: dose 3 mg/kg, route oral. Conditions: rhesus monkey, in vivo.
Data set [8] in a line: Oral bioavailability in Sprague-Dawley rat at 5 mg/kg. It counts as ADME, organism-based. The following applies: in vivo.
The nature of data set [9]: Half life in beagle dog at 1 mg/kg, iv as 30 mins infusion. The format is ADME, organism-based, Canis lupus familiaris. More on the design: dose 1 mg/kg, route intravenous. The following applies: in vivo.
The nature of data set [10]: Half life in monkey at 1 mg/kg, iv as 30 mins infusion. It counts as ADME, organism-based, Macaca mulatta. Conditions: rhesus monkey, in vivo. Details: dose 1 mg/kg, route intravenous.
Data set [11] can be described thus: Half life in Sprague-Dawley rat at 5 mg/kg, iv as 30 mins infusion. It counts as ADME, organism-based. Details: dose 5 mg/kg, route intravenous. Conditions: in vivo.
The nature of data set [12]: Oral bioavailability in beagle dog at 2 mg/kg. The format is ADME, organism-based, Canis lupus familiaris. Conditions: in vivo.
Data set [13] is described as follows: Oral bioavailability in Sprague-Dawley rat at 30 mg/kg. The format is ADME, organism-based. Conditions: in vivo.
Data set [14] can be described thus: Half life in beagle dog at 2.5 mg/kg, po. The format is ADME, organism-based, Canis lupus familiaris. Details: dose 2.5 mg/kg, route oral. The following applies: in vivo.
A short description of data set [15]: Cmax in monkey at 2.5 mg/kg, po. The format is ADME, organism-based, Macaca mulatta. Details: dose 2.5 mg/kg, route oral. The following applies: rhesus monkey, in vivo.
The nature of data set [16]: Oral bioavailability in beagle dog at 2.5 mg/kg. The format is ADME, organism-based, Canis lupus familiaris. The following applies: in vivo.
Data set [17] in a line: Oral bioavailability in Sprague-Dawley rat at 1 mg/kg. The following applies: in vivo. It counts as ADME, organism-based.
Data set [18] is described as follows: Oral bioavailability in monkey at 2.5 mg/kg. It counts as ADME, organism-based, Macaca mulatta. Conditions: rhesus monkey, in vivo.
Data set [19] is described as follows: Half life in monkey at 2.5 mg/kg, po. It counts as ADME, organism-based, Macaca mulatta. More on the design: dose 2.5 mg/kg, route oral. The following applies: rhesus monkey, in vivo.
The nature of data set [20]: Cmax in beagle dog at 2.5 mg/kg, po. The format is ADME, organism-based, Canis lupus familiaris. Details: dose 2.5 mg/kg, route oral. The following applies: in vivo.
In data set [21] the test system is Hepatitis C virus. Briefly: Antiviral activity against HCV genotype 1b infected in human Huh7 cells after 3 days by cell-based replicon assay in presence of 10% fetal bovine serum. It counts as functional, Hepacivirus hominis. The following applies: Huh-7, 72 h.
For data set [22], the system named is Hepatitis C virus. Briefly: Antiviral activity against HCV genotype 1b infected in human Huh7 cells after 3 days by cell-based replicon assay in presence of 40% normal human serum. Conditions: Huh-7, 72 h. The format is functional, Hepacivirus hominis.
Data set [23] can be described thus: Cytotoxicity against human HuH7 cells. The format is cell-based, Huh-7.
Data set [24] can be described thus: Half life in Sprague-Dawley rat at 1 mg/kg, iv as 30 mins infusion. The format is ADME, organism-based. The following applies: in vivo. Details: dose 1 mg/kg, route intravenous.
A short description of data set [25]: Cmax in monkey at 5 mg/kg, po. It counts as ADME, organism-based, Macaca mulatta. The following applies: rhesus monkey, in vivo. More on the design: dose 5 mg/kg, route oral.
Data set [26] is described as follows: Oral bioavailability in beagle dog at 1 mg/kg. It counts as ADME, organism-based, Canis lupus familiaris. Conditions: in vivo.
Data set [27] is described as follows: Oral bioavailability in Sprague-Dawley rat at 2 mg/kg. The format is ADME, organism-based. The following applies: in vivo.
Data set [28] is described as follows: Oral bioavailability in monkey at 5 mg/kg. The format is ADME, organism-based, Macaca mulatta. Conditions: rhesus monkey, in vivo.

Structures are written as SMILES.

Take `COC(=O)N[C@H](C(=O)N1CCC[C@H]1c1ncc(-c2ccc(-c3ccc(-c4cnc([C@@H]5CCCN5C(=O)[C@@H](NC(=O)OC)C(C)C)[nH]4)cc3)cc2)[nH]1)C(C)C`: the bioavailability in data set [1] is 58.5%; in data set [8] it was 50%. Also, the maximum concentration (Cmax) in data set [2] is 0.5 µM; in [6] it was 0.728 µM. Further, the EC50 in the data set on Hepatitis C virus [3] is 0.003 nM. Also, the logP in data set [4] amounted to 6.33. Besides, the half-life in data set [5] is 1.5 h; in data set [7], 3 h.

In the case of `COC(=O)N[C@H](C(=O)N1CCC[C@H]1c1ncc(-c2ccc(-c3ccc(-c4cnc([C@@H]5CC6(CN5C(=O)[C@@H](NC(=O)OC)C(C)C)OCCO6)[nH]4)cc3)cc2)[nH]1)C(C)C`, the EC50 with Hepatitis C virus [3] was 0.0074 nM.

`CN(C)[C@@H](C(=O)N1CCC[C@H]1c1nc2cc(-c3cnc(-c4ccc5[nH]c([C@@H]6CCCN6C(=O)[C@@H](c6ccccc6)N(C)C)nc5c4)o3)ccc2[nH]1)c1ccccc1` came in with an EC50 in the data set on Hepatitis C virus [3] of under 4.6 nM.

In the data set on Hepatitis C virus [3], `COC(=O)N[C@H](C(=O)N1CCC[C@H]1c1ncc(-c2ccc(-c3csc4c(-c5ccc6[nH]c([C@@H]7CCCN7C(=O)[C@H](NC(=O)OC)c7ccccc7)nc6c5)csc34)cc2)[nH]1)C(C)C` came in with an EC50 of 0.003 nM.

On to `COC(=O)N[C@@H](C(=O)N1CCC[C@H]1c1nc2ccc(C#Cc3ccc4nc([C@@H]5CCCN5C(=O)[C@H](NC(=O)OC)C(C)C)[nH]c4c3)cc2[nH]1)C(C)C`, for which the EC50 with Hepatitis C virus [3] turned out to be 0.055 nM.

The compound `COC(=O)N[C@@H](C(=O)N1CCC[C@H]1c1ncc(C#CC#Cc2cnc([C@@H]3CCCN3C(=O)[C@H](NC(=O)OC)C(C)C)[nH]2)[nH]1)C(C)C` registered an EC50 in the data set with Hepatitis C virus [3] of 1.33 nM.

Regarding `COC(=O)N[C@@H](C(=O)N1CCC[C@H]1c1ncc(-c2ccc(C#CC#Cc3ccc(-c4cnc([C@@H]5CCCN5C(=O)[C@H](NC(=O)OC)C(C)C)[nH]4)cc3)cc2)[nH]1)C(C)C`, the EC50 in the data set with Hepatitis C virus [3] was determined as 0.384 nM.

On to `COC(=O)N[C@@H](C(=O)N1CCC[C@H]1c1nc2ccc(C#CC#Cc3ccc4nc([C@@H]5CCCN5C(=O)[C@H](NC(=O)OC)C(C)C)[nH]c4c3)cc2[nH]1)C(C)C`, for which the EC50 in the data set with Hepatitis C virus [3] came to 0.009 nM.

`COC(=O)N[C@@H](C(=O)N1CCC[C@H]1c1ncc(-c2ccc3c(c2)O[C@@H](c2ccccc2)n2c-3cc3cc(-c4cnc([C@@H]5CCCN5C(=O)[C@H](NC(=O)OC)C(C)C)[nH]4)ccc32)[nH]1)C(C)C`: the figures for the half-life in [9], in data set [10] and in data set [11] were 4.7 h, 16 h and 4.2 h, respectively. The EC50 with Hepatitis C virus [3] came out at 0.003 nM. The same compound came in with a log partition coefficient (logP) in data set [4] of 8.61. The bioavailability in [12] was determined as 35%; in data set [13] it was 9%.

With `COC(=O)N[C@@H](C(=O)N1CCC[C@H]1C(=O)Nc1ccc([C@H]2CC[C@@H](c3ccc(NC(=O)[C@@H]4CCCN4C(=O)[C@H](NC(=O)OC)C(C)C)cc3)N2c2ccc(C(C)(C)C)cc2)cc1)C(C)C`, the half-life in data set [14] is 7.3 h; in [5], 15.9 h; in [19], 5 h. Moreover, the figures for the Cmax in [15], in [6] and in [20] were 0.32 µM, 3.36 µM and 0.72 µM, respectively. Further, the bioavailability in data set [16] is 57%; in data set [17], 6.2%; in data set [18], 35%. Besides, the concentration giving a half-maximal response (EC50) with Hepatitis C virus [3] was determined as 0.005 nM.

Consider `COC(=O)N[C@H](C(=O)N1CCC[C@@H]1c1ncc(-c2ccc(C#CC#Cc3cnc([C@H]4CCCN4C(=O)[C@H](NC(=O)OC)C(C)C)[nH]3)cc2)[nH]1)C(C)C`, for which the EC50 was found to be 0.409 nM in the data set on Hepatitis C virus [21] and 0.737 nM in the data set on Hepatitis C virus [22]. In data set [23], this compound gave a CC50 of 30300 nM.

As for `c1cc2oc(-c3ccc(-c4ncc([C@@H]5CCCN5)[nH]4)cc3)cc2cc1-c1cnc([C@@H]2CCCN2)[nH]1`, the half-life was 7.7 h in data set [9], 3 h in [10] and 2 h in [24]. In [25], this compound came in with a peak concentration (Cmax) of 0.18 µM. Further, the bioavailability in data set [26] was 108%; in data set [27] it was 38%; in data set [28], 12%.

For the compound `COC(=O)N[C@H](C(=O)N1CCC[C@@H]1c1ncc(C#CC#Cc2ccc(-c3cnc([C@H]4CCCN4C(=O)[C@H](NC(=O)OC)C(C)C)[nH]3)cc2)[nH]1)C(C)C` (single isomer, unassigned), the figures for the EC50 with Hepatitis C virus [21] and in the data set on Hepatitis C virus [22] were 0.079 nM and 0.243 nM, respectively. In data set [23], this compound had a CC50 of 24700 nM.

In the case of `COC(=O)N[C@@H](C(=O)N1CCCC1c1ncc(C#CC#Cc2ccc(-c3cnc(C4CCCN4C(=O)[C@H](NC(=O)OC)C(C)C)[nH]3)cc2)[nH]1)C(C)C` (single isomer, unassigned; 13b), the EC50 was determined as 47 nM in the data set on Hepatitis C virus [21] and 137 nM in the data set on Hepatitis C virus [22]. Moreover, the CC50 in data set [23] is 298000 nM.

As for `COC(=O)N[C@H](C(=O)N1CCCC1c1ncc(C#CC#Cc2ccc(-c3cnc(C4CCCN4C(=O)[C@@H](NC(=O)OC)C(C)C)[nH]3)cc2)[nH]1)C(C)C` (single isomer, unassigned; 13i), the EC50 was 5.37 nM in the data set on Hepatitis C virus [21] and 36.1 nM with Hepatitis C virus [22]. This compound gave a CC50 in [23] of 34700 nM.

For the compound `COC(=O)N[C@H](C(=O)N1CCCC1c1ncc(C#CC#Cc2ccc(-c3cnc(C4CCCN4C(=O)[C@@H](NC(=O)OC)C(C)C)[nH]3)cc2)[nH]1)C(C)C` (single isomer, unassigned; 13j), the EC50 in the data set with Hepatitis C virus [21] worked out at 8880 nM; in the data set on Hepatitis C virus [22], 6900 nM. In [23], the CC50 is 59700 nM.

Turning to `COC(=O)N[C@@H](C(=O)N1CCCC1c1ncc(C#CC#Cc2ccc(-c3cnc(C4CCCN4C(=O)[C@H](NC(=O)OC)C(C)C)[nH]3)cc2)[nH]1)C(C)C` (single isomer, unassigned; 13k), the EC50 in the data set with Hepatitis C virus [21] was determined as 994 nM; in the data set with Hepatitis C virus [22], 7440 nM. This compound also showed a 50% cytotoxic concentration (CC50) in data set [23] of 108000 nM.
